Entries after “also recorded” stand apart in the source; their conditions may differ. Where two headings read alike, the source gives them in different places.

One series has as its system SIG-M5. The series is described as follows: cell growth inhibition assay, SIG-M5. In kind it is cell-based, human. The settings on record: read-out: IC50 (nM) in cell growth inhibition assay; SIG-M5, AML, p53 WT.
Series [1] has as its system p53 target genes (MDM2, p21, PUMA) and TP53 in RS4;11 cells. The series is described as follows: qRT-PCR analysis of mRNA levels of p53 target genes and TP53 in RS4. The settings on record: RS4;11, 6 h. In kind it is cell-based, human. (Quantitative PCR measures a nucleic acid by following its amplification.)
A further series concerns Mono-Mac-6. The series can be described thus: cell growth inhibition assay, Mono-Mac-6. In kind it is cell-based, human. The settings on record: read-out: IC50 in cell growth inhibition assay; Mono-Mac-6, AML, p53 MUT.
For the next series, the system named is RS4;11 cell line. The series is described as follows: cell growth inhibition, WST-8 assay, RS4. Format: cell-based, human. The settings on record: for IC50: 4 days, WST-8 assay. Background: Tetrazolium dyes change colour on reduction, which living cells bring about.
A further series relates to MOLM-14. The series is described as follows: cell growth inhibition assay, MOLM-14. In kind it is cell-based, human. The settings on record: read-out: IC50 (nM) in cell growth inhibition assay; MOLM-14, AML, p53 WT.
For series [2], the target named is MDM2 and p53 proteins in MV4;11 cell line (Homo sapiens, UniProt Q00987). The series is described as follows: western blotting analysis of MDM2 and p53 proteins in MV4. Format: cell-based. The following applies: MV4;11, 2 h, compared to RS4;11. In general terms: A western blot detects proteins with antibodies after separation by electrophoresis.
A further series deals with KG-1. The series can be described thus: cell growth inhibition assay, KG-1. In kind it is cell-based, human. The settings on record: read-out: IC50 in cell growth inhibition assay; KG-1, AML, p53 MUT.
The next series relates to MOLM-13. The series can be described thus: cell growth inhibition assay, MOLM-13. In kind it is cell-based, human. The following applies: read-out: IC50 (nM) in cell growth inhibition assay; MOLM-13, AML, p53 WT.
For series [3], the target named is MDM2 and p53 proteins in RS4;11 cells (Homo sapiens, UniProt Q00987). The series is described as follows: western blotting analysis of MDM2 and p53 proteins in RS4. Format: cell-based.
The subject of the next series is ML-2. The series can be described thus: cell growth inhibition assay, ML-2. In kind it is cell-based, human. The following applies: read-out: IC50 (nM) in cell growth inhibition assay; ML-2, AML, p53 WT.
The next series relates to OCL-AML-5. The series can be described thus: cell growth inhibition assay, OCL-AML-5. Format: cell-based, human. The settings on record: read-out: IC50 (nM) in cell growth inhibition assay; OCL-AML-5, AML, p53 WT.
The next series deals with MV4;11 AML cell line. The series is described as follows: cell growth inhibition, MV4. In kind it is cell-based, human.
The conditions of series [4]: first efficacy experiment.
Series [5] relates to leukemia cell lines with mutated p53. The series can be described thus: cell growth inhibition, leukemia cell lines with mutated p53. In kind it is cell-based, human. The following applies: read-out: IC50 in leukemia cell lines with mutated p53.
A further series has as its system RS4;11 xenograft tumors. The series is described as follows: antitumor activity in the RS4. Format: in vivo, mice.
The subject of series [6] is MDM2, p53, p21 and PARP cleavage in RS4;11 xenograft tumors. The following applies: single dose, mice; cited from earlier work.
Series [7] deals with human acute leukemia cell lines with wild-type p53. The series can be described thus: cell growth inhibition, panel of acute leukemia cell lines with wild-type p53. Format: cell-based.
The subject of series [8] is MDM2, p53, p21 and PARP cleavage in RS4;11 xenograft tumors. The series is described as follows: pharmacodynamic analysis in RS4. Format: in vivo, mice. The following applies: single dose 25 mg/kg, IV.
A further series relates to RS4;11 cells. The series can be described thus: flow cytometric analysis of apoptosis, Annexin V/PI double staining. The following applies: RS4;11, 24 h treatment. In kind it is cell-based, human.
[9] abbreviates: read-out: IC50 (nM) in inhibition of cell growth in the RS4;11 cell line.

MDM2 and p53 proteins in RS4;11 cells, sequence (Q00987 whole entry): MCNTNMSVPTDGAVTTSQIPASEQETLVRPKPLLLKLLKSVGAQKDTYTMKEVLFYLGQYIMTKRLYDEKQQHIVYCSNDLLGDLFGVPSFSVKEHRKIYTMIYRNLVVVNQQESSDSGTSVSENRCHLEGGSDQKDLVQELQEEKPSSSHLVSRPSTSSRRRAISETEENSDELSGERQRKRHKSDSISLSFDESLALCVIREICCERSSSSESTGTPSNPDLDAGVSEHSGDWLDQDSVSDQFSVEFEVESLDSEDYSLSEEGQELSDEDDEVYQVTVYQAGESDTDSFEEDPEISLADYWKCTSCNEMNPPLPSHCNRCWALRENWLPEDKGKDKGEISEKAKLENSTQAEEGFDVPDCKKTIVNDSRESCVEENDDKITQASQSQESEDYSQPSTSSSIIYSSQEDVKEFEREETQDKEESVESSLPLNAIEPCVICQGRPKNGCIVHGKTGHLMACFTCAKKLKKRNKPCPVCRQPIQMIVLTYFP
MDM2 and p53 proteins in MV4;11 cell line, sequence (Q00987 whole entry): as above

As usually defined, the IC50 is the concentration that inhibits the measured activity by half. On to “(3’R,4’S,5’R)-6”-Chloro-4’-(3-Chloro-2-fluorophenyl)-N-(4-((5-(2-(2,6-dioxopiperidin-3-yl)-1-oxoisoindolin-4-yl)pentyl)carbamoyl)phenyl)-2”-oxodispiro[cyclohexane-1,2’-pyrrolidine-3’,3”-indoline]-5’-carboxamide [Compound 13]”, for which the IC50 in the series on SIG-M5 is 29.9 ± 16 nM; in the series on Mono-Mac-6, above 10 µM; in the series on RS4;11 cell line (setting [9]), 2.8 ± 1.1 nM; with MOLM-14, 22.5 ± 8 nM; in the series on KG-1, above 10 µM; in the series on MOLM-13, 11.7 ± 4 nM. The half-inhibitory concentration (IC50) is 11.5 ± 6 nM in the series on ML-2 and 58.2 ± 29 nM in the series on OCL-AML-5. The “effect on TP53 mRNA” value in [1] is given as “have no effect on TP53”. Further, the “times more potent than MI-1061 in transcriptional upregulation of p53 target genes” value in series [1] is on record as above 10 times. In addition, the “times more potent than 1 in inhibition of cell growth” value in the series on RS4;11 cell line (RS4;11) is 4 times. Further, the “effect on MDM2 and p53 protein levels (western blotting)” value (“effect on MDM2 and p53 protein levels” below) in [2] is “similarly potent and effective in inducing depletion of MDM2 protein and accumulation of p53 protein”. Further, the “concentration that reduces/depletes MDM2 protein” value in series [3] (RS4;11 / leukemia cells, 2 h treatment) was at most 1 nM.
Take `O=C(O)c1ccc(NC(=O)[C@@H]2NC3(CCCCC3)[C@@]3(C(=O)Nc4cc(Cl)ccc43)[C@H]2c2cccc(Cl)c2F)cc1` [MI-1061, reference compound]: the “effect of pretreatment with lenalidomide on cell growth inhibitory activity” value in the series on MV4;11 AML cell line is “has no effect on the activity”; with RS4;11 cell line (RS4;11, 4 days, WST-8), “no significant effect”. The “transcriptional upregulation of p53 target genes (MDM2, p21, PUMA)” value in [1] is “effectively induces marked transcriptional upregulation of p53 target genes”. Moreover, the “weight loss or other signs of toxicity” value in [4] is “no significant weight loss or other signs of toxicity”. In addition, the IC50 in [5] (Homo sapiens) was above 10 µM. The “effect on MDM2 and p53 protein levels” value in series [3] (RS4;11 cells, 2 h treatment) is “inducing accumulation of both MDM2 and p53; also recorded: induces accumulation of both MDM2 and p53 proteins”. Moreover, the antitumor activity entry in the series on RS4;11 xenograft tumors (100 mg/kg, oral, daily dosing (5 days a week)) was “effectively retards tumor growth over the control”.
In the case of `CC(C)(C)C[C@@H]1N[C@@H](C(=O)N[C@H]2CC[C@H](O)CC2)[C@H](c2cccc(Cl)c2F)[C@]12C(=O)Nc1cc(Cl)ccc12` [MI-77301], in series [6], the “duration of p53 protein upregulation in tumor tissue” value is recorded as “only a few hours”.
With “(3’R,4’S,5’R)-6”-Chloro-4’-(3-Chloro-2-fluorophenyl)-N-(4-(((S)-14-((2S,4R)-4-hydroxy-2-(((S)-1-(4-(4-methylthiazol-5-yl)phenyl)ethyl)carbamoyl)pyrrolidine-1-carbonyl)-15,15-dimethyl-12-oxo-3,6,9-trioxa-13-azahexadecyl)carbamoyl)phenyl)-2”-oxodispiro[cyclohexane-1,2’-pyrrolidine-3’,3”-indoline]-5’-carboxamide [Compound 20]”, the IC50 in the series with RS4;11 cell line (setting [9]) is 340 ± 20 nM; in the series with RS4;11 cell line (read-out: IC50 in the cell growth assay in the RS4;11 cell line) it was 300 nM. In addition, in series [3] (RS4;11 cells, 12 h treatment), the “effect on MDM2 protein level (western blotting)” value is “fails to reduce the level of MDM2 protein”.
In the case of “(3’R,4’S,5’R)-6”-Chloro-4’-(3-Chloro-2-fluorophenyl)-N-(4-((5-(2-(2,6-dioxopiperidin-3-yl)-1,3-dioxoisoindolin-4-yl)pent-4-yn-1-yl)carbamoyl)phenyl)-2”-oxodispiro[cyclohexane-1,2’-pyrrolidine-3’,3”-indoline]-5’-carboxamide [Compound 14]”, the IC50 was 19.8 ± 11 nM in the series with SIG-M5; above 10 µM with Mono-Mac-6; 1.5 ± 0.5 nM in the series with RS4;11 cell line (setting [9]); 10.5 ± 3 nM with MOLM-14; above 10 µM in series [5]; above 10 µM in the series on KG-1. In addition, the IC50 is 7.3 ± 3 nM in the series with MOLM-13, 4.4 ± 2 nM with ML-2 and 33.1 ± 18 nM in the series on OCL-AML-5. The “times more potent than MI-1061 in cell growth inhibition” value in [7] is on record as above 10 times. The “PARP cleavage in tumor tissue” value in series [8] was “evident at the 24 h time point”. Further, the “persistence of MDM2 protein depletion in tumor tissue” value in series [8] (depleted at 3 h) was above 24 h. Moreover, in series [8] (strong at 3 h), the “duration of p53 and p21 upregulation in tumor tissue” value was above 24 h. The “effect on TP53 mRNA” value in [1] is reported as “have no effect on TP53”. Further, the “times more potent than MI-1061 in transcriptional upregulation of p53 target genes” value in [1] is listed as above 10 times. For the same compound, the “times more potent than MD-222 in inhibition of cell growth” value in the series on RS4;11 cell line (RS4;11) was determined as 2 times. Besides, in the series on RS4;11 cells, the “times more potent than MI-1061 in inducing apoptosis” value is above 10 times. In addition, the antitumor activity result is “complete tumor regression” in the series with RS4;11 xenograft tumors (25 mg/kg, daily, 5 days a week for 2 weeks); “complete tumor regression” in the series on RS4;11 xenograft tumors (50 mg/kg, every other day for three weeks); “complete tumor growth inhibition” in the series on RS4;11 xenograft tumors (50 mg/kg, weekly dosing).
On to “(3’R,4’S,5’R)-6”-Chloro-4’-(3-Chloro-2-fluorophenyl)-N-(4-((5-(2-(2,6-dioxopiperidin-3-yl)-1-oxoisoindolin-5-yl)pent-4-yn-1-yl)carbamoyl)phenyl)-2”-oxodispiro[cyclohexane-1,2’-pyrrolidine-3’,3”-indoline]-5’-carboxamide [Compound 16]”, for which the “times less potent than MD-224 in inhibition of cell growth” value with RS4;11 cell line (RS4;11) is recorded as 3 times. Besides, the IC50 in the series on RS4;11 cell line (setting [9]) amounted to 5 ± 2 nM. Besides, in series [3] (RS4;11 cells, 2 h treatment), the “effect on MDM2 and p53 protein levels” value was “effectively induce degradation of MDM2 and accumulation of p53”.
Turning to `O=C1CCC(N2C(=O)c3cccc(NCCOCCOCCNC(=O)c4ccc(NC(=O)[C@@H]5NC6(CCCCC6)[C@@]6(C(=O)Nc7cc(Cl)ccc76)[C@H]5c5cccc(Cl)c5F)cc4)c3C2=O)C(=O)N1` (stereo partly shown) [Compound 2, (3’R,4’S,5’R)-6”-Chloro-4’-(3-Chloro-2-fluorophenyl)-N-(4-((2-(2-(2-((2-(2,6-dioxopiperidin-3-yl)-1,3-dioxoisoindolin-4-yl)amino)ethoxy)ethoxy)-ethyl)carbamoyl)phenyl)-2”-oxodispiro[cyclohexane-1,2’-pyrrolidine-3’,3”-indoline]-5’-carboxamide], in the series with RS4;11 cell line (RS4;11), the “times more potent than MI-1061 and MI-1242 in inhibition of cell growth” value is given as “about 10 times”. Moreover, the “effect on MDM2 and p53 protein levels” value in [3] (RS4;11 cells, 2 h treatment) was “effectively reduce the level of MDM2 protein; also recorded: effectively induce degradation of MDM2 and accumulation of p53”.

Values taken from publication PMC6545112 (Journal of medicinal chemistry, 2018).
